Assay results taken from patent EP4722212A1, “NOVEL COMPOUND FOR INHIBITING PROTEIN KINASES AND PHARMACEUTICAL COMPOSITION COMPRISING SAME” (Magicbullettherapeutics Co., Ltd., priority 2023, dated 2024).
Like-named read-outs stand apart in the source and are kept apart here.

Tests used:
Assay in all cases: Kinase panel
Type in all cases: biochemical
DDR1 = DDR1 (Homo sapiens, UniProt Q08345); conditions: DDR1, 1 µM; read-out: residual enzyme activity
In short: (§1)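 Residual enzyme activity is given for kinases screened biochemically with compound at a fixed 1 µM. Kinases showing ≤40% residual activity (≥60% inhibition) were identified as inhibited.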

HGK/MAP4K4 = HGK/MAP4K4 (Homo sapiens, UniProt O95819); conditions: HGK/MAP4K4, 1 µM; read-out: residual enzyme activity
In short: as §1

CAMK2A = CAMK2A (Homo sapiens, UniProt Q9UQM7); conditions: read-out: residual enzyme activity
In short: as §1

CAMK2B = CAMK2B (Homo sapiens, UniProt Q13554); conditions: read-out: residual enzyme activity
In short: as §1

PLK1 = PLK1 (Homo sapiens, UniProt P53350); conditions: PLK1, 1 µM; read-out: residual enzyme activity
In short: as §1

PHKG1 = PHKG1 (Homo sapiens, UniProt Q16816); conditions: read-out: residual enzyme activity
In short: as §1

AKT3 = AKT3 (Homo sapiens, UniProt Q9Y243); conditions: AKT3, 1 µM; read-out: residual enzyme activity
Chain of AKT3 (Q9Y243 whole entry): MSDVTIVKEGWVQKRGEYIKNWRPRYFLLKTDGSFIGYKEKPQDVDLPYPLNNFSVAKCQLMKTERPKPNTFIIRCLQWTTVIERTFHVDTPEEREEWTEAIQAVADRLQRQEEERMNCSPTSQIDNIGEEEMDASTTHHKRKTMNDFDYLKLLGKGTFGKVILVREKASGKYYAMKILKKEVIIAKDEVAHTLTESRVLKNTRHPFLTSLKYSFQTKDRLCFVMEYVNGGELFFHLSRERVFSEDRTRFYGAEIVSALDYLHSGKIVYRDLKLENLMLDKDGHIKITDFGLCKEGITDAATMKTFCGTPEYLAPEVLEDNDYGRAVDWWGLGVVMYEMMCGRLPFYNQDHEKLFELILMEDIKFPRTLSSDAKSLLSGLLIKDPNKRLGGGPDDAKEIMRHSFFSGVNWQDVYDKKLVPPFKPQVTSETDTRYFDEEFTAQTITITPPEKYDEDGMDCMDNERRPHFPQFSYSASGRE
In short: as §1

PKCB1 = PKCB1 (Homo sapiens, UniProt P05771); conditions: read-out: residual enzyme activity
Chain of PKCB1 (P05771 whole entry): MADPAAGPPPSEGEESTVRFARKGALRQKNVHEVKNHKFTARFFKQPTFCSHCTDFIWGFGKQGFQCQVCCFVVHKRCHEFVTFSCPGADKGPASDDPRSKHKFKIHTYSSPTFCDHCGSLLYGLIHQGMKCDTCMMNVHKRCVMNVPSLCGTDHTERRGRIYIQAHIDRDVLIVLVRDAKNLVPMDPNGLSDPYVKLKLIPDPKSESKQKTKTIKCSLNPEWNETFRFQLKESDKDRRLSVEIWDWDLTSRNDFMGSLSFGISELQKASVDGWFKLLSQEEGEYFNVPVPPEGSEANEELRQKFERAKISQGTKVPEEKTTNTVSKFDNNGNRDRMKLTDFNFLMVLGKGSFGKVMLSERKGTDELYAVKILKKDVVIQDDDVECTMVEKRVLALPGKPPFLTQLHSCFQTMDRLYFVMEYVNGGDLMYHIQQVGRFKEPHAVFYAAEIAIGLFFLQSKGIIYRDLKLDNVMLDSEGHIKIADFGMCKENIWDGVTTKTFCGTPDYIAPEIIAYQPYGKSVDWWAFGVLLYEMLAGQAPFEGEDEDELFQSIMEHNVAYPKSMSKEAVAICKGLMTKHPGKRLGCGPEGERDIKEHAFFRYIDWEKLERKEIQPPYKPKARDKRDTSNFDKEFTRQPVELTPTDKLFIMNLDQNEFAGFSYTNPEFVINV
In short: as §1

NEK3 = NEK3 (Homo sapiens, UniProt P51956); conditions: NEK3, 1 µM; read-out: residual enzyme activity
In short: as §1

WNK1 = WNK1 (Homo sapiens, UniProt Q9H4A3); conditions: WNK1, 1 µM; read-out: residual enzyme activity
In short: as §1

GSK3B = GSK3B (Homo sapiens, UniProt P49841); conditions: read-out: residual enzyme activity
In short: as §1

STK25/YSK1 = STK25/YSK1 (Homo sapiens, UniProt O00506); conditions: STK25/YSK1, 1 µM; read-out: residual enzyme activity
In short: as §1

JAK1 = JAK1 (Homo sapiens, UniProt P23458); conditions: JAK1, 1 µM; read-out: residual enzyme activity
Chain of JAK1 (P23458 whole entry, species assumed): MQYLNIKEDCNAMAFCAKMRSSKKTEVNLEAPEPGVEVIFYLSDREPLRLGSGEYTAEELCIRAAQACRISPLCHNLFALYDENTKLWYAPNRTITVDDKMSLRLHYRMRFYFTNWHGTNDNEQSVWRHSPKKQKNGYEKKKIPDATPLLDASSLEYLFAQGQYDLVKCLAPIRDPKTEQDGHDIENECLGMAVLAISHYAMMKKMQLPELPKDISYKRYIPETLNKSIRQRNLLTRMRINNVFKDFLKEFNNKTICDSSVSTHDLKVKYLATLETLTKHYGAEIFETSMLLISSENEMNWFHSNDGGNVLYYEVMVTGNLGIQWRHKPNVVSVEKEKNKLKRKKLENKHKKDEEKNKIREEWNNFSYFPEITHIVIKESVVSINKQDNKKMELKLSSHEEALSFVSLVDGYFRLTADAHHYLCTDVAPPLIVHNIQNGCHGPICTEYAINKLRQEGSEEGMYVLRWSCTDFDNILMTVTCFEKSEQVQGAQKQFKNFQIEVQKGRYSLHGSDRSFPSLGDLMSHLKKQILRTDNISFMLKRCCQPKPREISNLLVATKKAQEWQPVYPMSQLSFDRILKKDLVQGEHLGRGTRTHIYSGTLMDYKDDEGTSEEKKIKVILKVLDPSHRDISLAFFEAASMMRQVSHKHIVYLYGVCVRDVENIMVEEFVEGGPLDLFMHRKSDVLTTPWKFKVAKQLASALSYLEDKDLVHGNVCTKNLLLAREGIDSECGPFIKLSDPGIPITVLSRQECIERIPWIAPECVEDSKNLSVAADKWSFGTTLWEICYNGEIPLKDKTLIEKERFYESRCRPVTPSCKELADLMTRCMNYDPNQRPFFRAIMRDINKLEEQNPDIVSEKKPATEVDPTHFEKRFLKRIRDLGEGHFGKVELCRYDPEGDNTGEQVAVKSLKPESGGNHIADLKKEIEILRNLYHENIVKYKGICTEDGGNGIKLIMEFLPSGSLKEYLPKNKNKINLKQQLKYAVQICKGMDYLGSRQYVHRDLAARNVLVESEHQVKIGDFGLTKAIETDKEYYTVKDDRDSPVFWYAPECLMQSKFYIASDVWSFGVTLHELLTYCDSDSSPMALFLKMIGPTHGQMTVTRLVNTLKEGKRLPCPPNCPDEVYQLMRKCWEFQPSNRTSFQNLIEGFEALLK
In short: as §1

TLK1 = TLK1 (Homo sapiens, UniProt Q9UKI8); conditions: TLK1, 1 µM; read-out: residual enzyme activity
In short: as §1

ERK5/MAPK7 = ERK5/MAPK7 (Homo sapiens, UniProt Q13164); conditions: ERK5/MAPK7, 1 µM; read-out: residual enzyme activity
In short: as §1

PKCTHETA = PKCTHETA (Homo sapiens, UniProt Q04759); conditions: read-out: residual enzyme activity
In short: as §1

BRSK1 = BRSK1 (Homo sapiens, UniProt Q8TDC3); conditions: BRSK1, 1 µM; read-out: residual enzyme activity
Chain of BRSK1 (Q8TDC3 whole entry, species assumed): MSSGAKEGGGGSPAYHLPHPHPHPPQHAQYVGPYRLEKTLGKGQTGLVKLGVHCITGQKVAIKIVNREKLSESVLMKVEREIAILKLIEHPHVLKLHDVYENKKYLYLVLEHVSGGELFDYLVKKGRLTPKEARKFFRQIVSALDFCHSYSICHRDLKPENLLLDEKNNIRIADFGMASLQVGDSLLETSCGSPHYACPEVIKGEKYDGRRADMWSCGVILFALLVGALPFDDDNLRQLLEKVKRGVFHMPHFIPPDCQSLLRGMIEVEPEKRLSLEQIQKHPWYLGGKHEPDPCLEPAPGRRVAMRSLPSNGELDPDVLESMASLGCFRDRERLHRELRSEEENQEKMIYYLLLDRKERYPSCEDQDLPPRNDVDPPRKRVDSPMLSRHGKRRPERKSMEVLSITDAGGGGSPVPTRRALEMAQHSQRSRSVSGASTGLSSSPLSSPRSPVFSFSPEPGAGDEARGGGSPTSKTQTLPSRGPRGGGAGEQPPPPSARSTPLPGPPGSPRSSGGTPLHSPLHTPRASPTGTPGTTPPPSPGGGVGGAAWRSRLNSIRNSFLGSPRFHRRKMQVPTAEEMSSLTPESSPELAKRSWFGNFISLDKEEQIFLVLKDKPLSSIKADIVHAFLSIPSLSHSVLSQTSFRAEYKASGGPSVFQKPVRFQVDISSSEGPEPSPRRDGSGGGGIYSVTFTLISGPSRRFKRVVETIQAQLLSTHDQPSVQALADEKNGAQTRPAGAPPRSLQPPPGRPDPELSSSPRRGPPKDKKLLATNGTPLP
In short: as §1

EPHA3 = EPHA3 (Homo sapiens, UniProt P29320); conditions: EPHA3, 1 µM; read-out: residual enzyme activity
In short: as §1

GRK5 = GRK5 (Homo sapiens, UniProt P34947); conditions: GRK5, 1 µM; read-out: residual enzyme activity
In short: as §1

MRCKA/CDC42BPA = MRCKA/CDC42BPA (Homo sapiens, UniProt Q5VT25); conditions: read-out: residual enzyme activity
In short: as §1

ERBB4/HER4 = ERBB4/HER4 (Homo sapiens, UniProt Q15303); conditions: ERBB4/HER4, 1 µM; read-out: residual enzyme activity
In short: as §1

PRKX = PRKX (Homo sapiens, UniProt P51817); conditions: read-out: residual enzyme activity
In short: as §1

RIPK2 = RIPK2 (Homo sapiens, UniProt O43353); conditions: RIPK2, 1 µM; read-out: residual enzyme activity
In short: as §1

ITK = ITK (Homo sapiens, UniProt Q08881); conditions: read-out: residual enzyme activity
In short: as §1

EPHA7 = EPHA7 (Homo sapiens, UniProt Q15375); conditions: EPHA7, 1 µM; read-out: residual enzyme activity
In short: as §1

TLK2 = TLK2 (Homo sapiens, UniProt Q86UE8); conditions: TLK2, 1 µM; read-out: residual enzyme activity
In short: as §1

NEK11 = NEK11 (Homo sapiens, UniProt Q8NG66); conditions: NEK11, 1 µM; read-out: residual enzyme activity
In short: as §1

PKN2/PRK2 = PKN2/PRK2 (Homo sapiens, UniProt Q16513); conditions: PKN2/PRK2, 1 µM; read-out: residual enzyme activity
Chain of PKN2/PRK2 (Q16513 whole entry): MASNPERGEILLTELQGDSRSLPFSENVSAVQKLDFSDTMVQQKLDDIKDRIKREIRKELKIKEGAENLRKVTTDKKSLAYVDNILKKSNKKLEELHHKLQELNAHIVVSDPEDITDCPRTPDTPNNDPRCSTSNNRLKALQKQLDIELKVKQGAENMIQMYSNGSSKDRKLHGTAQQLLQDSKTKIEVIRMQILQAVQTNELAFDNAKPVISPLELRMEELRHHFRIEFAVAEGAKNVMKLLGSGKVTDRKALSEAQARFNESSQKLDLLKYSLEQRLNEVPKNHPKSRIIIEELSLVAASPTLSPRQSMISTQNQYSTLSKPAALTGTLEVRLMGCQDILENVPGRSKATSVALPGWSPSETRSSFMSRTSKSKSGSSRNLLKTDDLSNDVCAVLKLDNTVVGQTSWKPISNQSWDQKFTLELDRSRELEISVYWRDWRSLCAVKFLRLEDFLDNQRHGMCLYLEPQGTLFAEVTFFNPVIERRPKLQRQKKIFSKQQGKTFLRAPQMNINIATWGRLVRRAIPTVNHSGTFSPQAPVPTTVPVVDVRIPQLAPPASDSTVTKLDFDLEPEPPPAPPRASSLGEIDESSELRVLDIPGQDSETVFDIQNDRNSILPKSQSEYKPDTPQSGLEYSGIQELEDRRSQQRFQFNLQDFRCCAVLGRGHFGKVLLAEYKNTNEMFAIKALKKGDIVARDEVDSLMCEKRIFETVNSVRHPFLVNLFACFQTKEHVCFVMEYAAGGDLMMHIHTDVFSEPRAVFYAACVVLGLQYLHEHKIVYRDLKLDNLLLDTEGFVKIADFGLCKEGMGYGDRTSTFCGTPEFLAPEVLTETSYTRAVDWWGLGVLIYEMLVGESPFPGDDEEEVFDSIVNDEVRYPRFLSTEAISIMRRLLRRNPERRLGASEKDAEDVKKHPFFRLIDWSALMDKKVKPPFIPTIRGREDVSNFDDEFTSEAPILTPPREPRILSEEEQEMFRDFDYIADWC
In short: as §1

CDK3/CYCLIN E = CDK3/CYCLIN E (Homo sapiens, UniProt Q00526); conditions: read-out: residual enzyme activity
In short: as §1

PKCZETA = PKCZETA (Homo sapiens, UniProt Q05513); conditions: read-out: residual enzyme activity
In short: as §1

LATS1 = LATS1 (Homo sapiens, UniProt O95835); conditions: LATS1, 1 µM; read-out: residual enzyme activity
In short: as §1

DMPK2 = DMPK2 (Homo sapiens, UniProt Q6DT37); conditions: DMPK2, 1 µM; read-out: residual enzyme activity
In short: as §1

EPHB2 = EPHB2 (Homo sapiens, UniProt P29323); conditions: EPHB2, 1 µM; read-out: residual enzyme activity
Chain of EPHB2 (P29323 19-1055, species assumed): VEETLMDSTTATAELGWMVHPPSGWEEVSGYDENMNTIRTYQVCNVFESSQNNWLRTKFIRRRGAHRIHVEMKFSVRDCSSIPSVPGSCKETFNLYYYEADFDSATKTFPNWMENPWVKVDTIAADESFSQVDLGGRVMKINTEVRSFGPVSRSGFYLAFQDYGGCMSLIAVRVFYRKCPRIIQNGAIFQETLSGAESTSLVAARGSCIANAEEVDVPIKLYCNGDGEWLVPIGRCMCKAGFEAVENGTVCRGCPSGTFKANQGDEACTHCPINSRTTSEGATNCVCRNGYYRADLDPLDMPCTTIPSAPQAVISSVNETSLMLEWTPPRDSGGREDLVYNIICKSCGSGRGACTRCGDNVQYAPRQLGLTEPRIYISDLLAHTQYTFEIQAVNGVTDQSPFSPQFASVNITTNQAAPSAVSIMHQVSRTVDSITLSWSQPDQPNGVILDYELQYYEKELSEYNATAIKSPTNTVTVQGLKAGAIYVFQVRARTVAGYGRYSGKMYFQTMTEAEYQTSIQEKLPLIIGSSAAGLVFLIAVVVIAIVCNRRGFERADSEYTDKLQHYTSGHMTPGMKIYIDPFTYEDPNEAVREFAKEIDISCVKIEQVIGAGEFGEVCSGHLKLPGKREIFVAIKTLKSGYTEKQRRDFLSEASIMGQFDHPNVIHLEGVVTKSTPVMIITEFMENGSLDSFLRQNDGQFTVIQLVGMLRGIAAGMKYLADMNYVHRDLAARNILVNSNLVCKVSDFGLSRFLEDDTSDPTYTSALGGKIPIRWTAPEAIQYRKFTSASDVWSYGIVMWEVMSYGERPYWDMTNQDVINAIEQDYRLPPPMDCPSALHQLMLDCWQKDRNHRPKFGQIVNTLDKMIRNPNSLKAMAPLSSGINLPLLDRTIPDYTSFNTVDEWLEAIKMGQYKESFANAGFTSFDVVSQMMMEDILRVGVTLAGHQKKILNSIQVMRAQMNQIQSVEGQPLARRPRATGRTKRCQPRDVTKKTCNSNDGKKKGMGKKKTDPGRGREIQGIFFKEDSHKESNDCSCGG
In short: as §1

Row | Compound | remaining activity at 1 µM (DDR1) | remaining activity at 1 µM (HGK/MAP4K4) | remaining activity at 1 µM (PLK1) | remaining activity at 1 µM (AKT3) | remaining activity at 1 µM (NEK3) | remaining activity at 1 µM (WNK1) | remaining activity at 1 µM (STK25/YSK1) | remaining activity at 1 µM (JAK1) | remaining activity at 1 µM (TLK1) | remaining activity at 1 µM (ERK5/MAPK7) | remaining activity at 1 µM (PKCTHETA) | remaining activity at 1 µM (BRSK1) | remaining activity at 1 µM (EPHA3) | remaining activity at 1 µM (GRK5) | remaining activity at 1 µM (MRCKA/CDC42BPA) | remaining activity at 1 µM (ERBB4/HER4) | remaining activity at 1 µM (PRKX) | remaining activity at 1 µM (RIPK2) | remaining activity at 1 µM (ITK) | remaining activity at 1 µM (EPHA7) | further results
1 | Cc1ccc(Nc2ncc3c(n2)C2(CC2)C(=O)N(c2cc(NC(=O)c4cccc(C(F)(F)F)c4)ccc2C)C3)cn1 [Compound 51, N-(4-methyl-3-(2'-((6-methylpyridin-3-yl)amino)-7'-oxo-5'H-spiro[cyclopropane-1,8'-pyrido[4,3-d]pyrimidine]-6'(7'H)-yl)phenyl)-3-(trifluoromethyl)benzamide] | ≤ 40% | ≤ 40% | > 40% | > 40% | > 40% | > 40% | > 40% | ≤ 40% | > 40% | > 40% | > 40% | > 40% | ≤ 40% | > 40% | > 40% | ≤ 40% | > 40% | > 40% | > 40% | ≤ 40% | remaining activity at 1 µM (CAMK2A; CAMK2a): > 40%; remaining activity at 1 µM (CAMK2B; CAMK2b): > 40%; remaining activity at 1 µM (PHKG1; PHKgl, 1 µM): > 40%; remaining activity at 1 µM (PKCB1; PKCbl, 1 µM): > 40%; remaining activity at 1 µM (GSK3B; GSK3b): > 40%; remaining activity at 1 µM (TLK2): > 40%; remaining activity at 1 µM (NEK11): ≤ 40%; remaining activity at 1 µM (PKN2/PRK2): > 40%; remaining activity at 1 µM (CDK3/CYCLIN E): > 40%; remaining activity at 1 µM (PKCZETA): > 40%; remaining activity at 1 µM (LATS1): > 40%; remaining activity at 1 µM (DMPK2): > 40%; remaining activity at 1 µM (EPHB2): ≤ 40%
2 | Cc1cn(-c2cc(C(=O)Nc3ccc(C)c(N4Cc5cnc(NC6CC6)nc5C5(CC5)C4=O)c3)cc(C(F)(F)F)c2)cn1 [Compound 8, N-(3-(2'-(cyclopropylamino)-7'-oxo-5'H-spiro[cyclopropane-1,8'-pyrido[4,3-d]pyrimidine]-6'(7'H)-yl)-4-methylphenyl)-3-(4-methyl-1H-imidazol-1-yl)-5-(trifluoromethyl)benzamide] | ≤ 40% | ≤ 40% | > 40% | > 40% | > 40% | > 40% | > 40% | ≤ 40% | > 40% | > 40% | > 40% | > 40% | ≤ 40% | > 40% | > 40% | ≤ 40% | > 40% | > 40% | > 40% | ≤ 40% | remaining activity at 1 µM (CAMK2A; CAMK2A): > 40%; remaining activity at 1 µM (CAMK2B; CAMK2B): > 40%; remaining activity at 1 µM (PHKG1; PHKG1, 1 µM): > 40%; remaining activity at 1 µM (PKCB1; PKCB1, 1 µM): > 40%; remaining activity at 1 µM (GSK3B; GSK3B): > 40%; remaining activity at 1 µM (TLK2): > 40%; remaining activity at 1 µM (NEK11): > 40%; remaining activity at 1 µM (PKN2/PRK2): > 40%; remaining activity at 1 µM (CDK3/CYCLIN E): > 40%; remaining activity at 1 µM (PKCZETA): > 40%; remaining activity at 1 µM (LATS1): > 40%; remaining activity at 1 µM (DMPK2): > 40%; remaining activity at 1 µM (EPHB2): ≤ 40%
